Reference: US10946024B2, “Method for treating cancer” (Epizyme, Inc., priority 2014, dated 2021)

Tests used:
[1] = Plasma concentrations in HS-SY-II xenograft model (LC/MS/MS); type: in vivo, mice; conditions: oral twice daily for 7 days; 5 minutes before and 3 hours after the last dose
Procedure: (§1) HS-SY-II cells were harvested during mid-log phase growth, and resuspended in Hank balanced salt solution with 50% Matrigel (BD Biosciences). Balb/C-nu mice (Charles River Laboratories Japan) received 1×10^7 cells (0.1 mL cell suspension) subcutaneously in the right flank. Mice carrying tumors of approximately 200 mm^3 (31 days after injection) were sorted into treatment groups with similar mean tumor volumes. Compound A or vehicle (0.5% MC+0.1% Tween-80 in water) was administered at the indicated doses on twice a day for 7 days by oral gavage. Each dose was delivered in a volume of 0.2 mL/20 g mouse (10 mL/kg), and adjusted for the last recorded weight of individual animals. Peripheral blood samples were collected at approximately 5 minutes before and 3 hours after the last dose from Compound A-treated mice. After obtaining plasma samples by centrifugation, the analysis for plasma concentrations of Compound A was conducted by the liquid chromatography-tandem mass spectrometry (LC/MS/MS) method. The UPLC system (Acquity, Waters) equipped with a mass spectrometer (Quattro premier, MICROMASS) was used for quantification of Compound A. The concentrations are plotted (n=5) in FIG. 7A. Each bar represents a mean of plasma concentration in each group.

[2] = tested on: H3K27me3 in HS-SY-II xenograft; test: H3K27me3 in tumor of HS-SY-II xenograft, 7 days twice daily oral dosing (ELISA); type: in vivo, mice; conditions: for H3K27me3 in tumor, Mean 2 (fold change to vehicle) / H3K27me3 in tumor, Mean Diff. vehicle vs. treated: 7 days; for H3K27me3 in tumor, Dunnett's test Significant?: alpha 0.05
Procedure: as §1
For FIG. 10D, tumors were snap-frozen in liquid nitrogen. Frozen tumor samples were cut into a 20 mg pieces and placed in 500 μL of ice cold nuclear extraction buffer (10 mM Tris-HCl, 10 mM MgCl2, 25 mM KCl, 1% Triton X-100, 8.6% Sucrose, plus 1× Halt Protease inhibitor cocktail (1861281, Thermo Scientific)) and homogenized with a handy micro homogenizer. Nuclei were collected by centrifugation at 600 g for 5 minutes at 4° C. and washed once with ice cold PBS. Supernatant was removed and histones extracted for one hour with […] 0.4 N cold sulfuric acid. Extracts were clarified by centrifugation at 10,000 g for 10 minutes at 4° C. and transferred to a fresh microcentrifuge tube containing 1 mL of ice cold acetone. Histones were precipitated at −20° C. for overnight, pelleted by centrifugation at 10,000 g for 10 minutes and resuspended in 100 μl of water. Histones were quantified using the BCA protein assay (23225, Pierce). The diluted histones were coated on Immulon 4HBX plates (3855, Thermo Scientific) overnight and ELISA was performed. Briefly, after blocking with PBS containing 0.05% Tween 20 and 2% bovine serum albumin (BSA), the plates were incubated with H3K27me3 antibody (#9733, Cell Signaling Technology) or total histone H3 antibody (AB1791, Abcam). The plates were further incubated with horseradish peroxidase conjugated anti-rabbit IgG (#7074, Cell Signaling Technology), followed by incubated with TMB substrate (TMBS-0100-01, BioFx Laboratories). Subsequently, the developed colors in the wells were measured using a plate spectrophotometer (SpectraMax 250, Molecular Devices) at 450 nm (reference wavelength 650 nm). The H3K27me3 levels were adjusted to total histone H3, and expressed as fold changes to vehicle control. The values are plotted (n=6) in FIG. 10D. Each bar represents a mean of the values in each group. […] Histones were extracted and quantified, and the levels of H3K27me3 were analyzed as described above. Trimethylation levels of H3K27 in the tumor are plotted (n=5) in FIG. 7B. Each bar represents a mean±SEM of the trimethylation level in each group.

[3] = tested on: synovial sarcoma PDX (CTG-0771, CTG-0331); test: Tumor volume in mice bearing patient-derived xenografts (PDX) of synovial sarcoma, 35 days; type: in vivo; conditions: oral 125, 250 or 500/400 mg/kg for 35 days
Procedure: FIGS. 11A and 11C show mean in vivo tumor volumes for athymic nude mice bearing one of two different PDX of synovial sarcoma tumors. FIGS. 11B and 11D show percent survival for mice bearing a PDX. Mice were dosed with either vehicle (oral for 35 days), Compound A (oral: 125 mg/kg, 250 mg/kg, or 500/400 mg/kg for 35 days) or Doxorubicin (iv: 3 mg/kg, once a week for 3 weeks). FIGS. 11A and 11B show data from mice bearing PDX from high-grade spindle cell sarcoma. FIGS. 11C and 11D show data from mice bearing PDX.
Immunocompromised female mice (Taconic; NCr nude) were implanted unilaterally in the flank region with tumor fragments (5 mm×5 mm×5 mm) harvested from donor animals, each implanted from a specific passage lot (CTG-0331 and CTG-0771 at P4). When tumors reached approximately 100-300 mm^3, animals were matched by tumor volume into treatment and control groups and dosing initiated. Vehicle (0.5% NaCMC plus 0.1% Tween 80 in water) or Compound A (500 mg/kg for CTG-0331 and 500 mg/kg decreased to 400 mg/kg on Day 17 for CTG-0771) was administered orally BID at a dose volume of 10 μL/g for 35 days. Tumor size was measured twice weekly. On Day 35, up to 5 mice with the largest tumor burden were euthanized for tumor collection 3 hours after final dose, and flash frozen. […]

[4] = tested on: HLA genes, Fas, KLRD1 expression in synovial sarcoma PDX tumors; conditions: 400 mg/kg BID, PDX tumors harvested on day 35
Procedure: Tumor samples were collected at approximately 3 hours after the last dose from mice used in analysis for PK values and PD alterations. The tumor samples were stored using RNAlater (AM7020, Life technologies). Total RNA isolation and the reverse transcription were performed by RNeasy Mini Kit (74104, Qiagen) and High capacity cDNA Reverse Transcription kit (4368814, Life technologies) according to the manufacturer's instruction. The cDNA samples were used for real time-PCR as described above. The expression levels were adjusted to GAPDH and expressed as fold changes to vehicle control (FIG. 9). Additionally or alternatively, total RNAs were isolated from frozen tumor samples. The TruSeq™ RNA Sample Prep Kit (Illumina) was used to build cDNA library for paired-end sequencing on the Illumina HiSeq (details described in Illumina TruSeq RNA Sample Preparation Guide). […] Paired-end reads from ˜50M clusters per sample were generated using TruSeq SBS kit on the Illumina HiSeq.
Raw sequencing reads in FASTQ format was aligned to human genome hg19 as well as mouse genome mm10. Transcriptomic quantification was carried out with the RSEM v1.1.13 program, using USCS KnownGene transcriptome as reference. […]
The patient-derived xenograft (PDX) models CTG-0331 and CTG-0771 are low passage Champions TumorGraft™ models representing human synovial sarcoma. […] Tumor size was measured twice weekly. […]

CCN(c1cc(-c2ccc(CN3CCOCC3)cc2)cc(C(=O)NCc2c(C)cc(C)[nH]c2=O)c1C)C1CCOCC1 [Compound A]
plasma concentrations [1]: Dose dependent exposure
H3K27me3 in tumor, Dunnett's test Summary ([2]; 125 mg/kg): * * *
H3K27me3 in tumor, Mean 2 (fold change to vehicle) ([2]; 125 mg/kg oral twice daily): 0.7
H3K27me3 in tumor, Mean Diff. vehicle vs. treated ([2]; 125 mg/kg oral twice daily): 0.3
H3K27me3 in tumor, Dunnett's test Significant? ([2]; 125 mg/kg): Yes
H3K27me3 in tumor, Dunnett's test Summary ([2]; 250 mg/kg): * * *
H3K27me3 in tumor, Mean 2 (fold change to vehicle) ([2]; 250 mg/kg oral twice daily): 0.55
H3K27me3 in tumor, Mean Diff. vehicle vs. treated ([2]; 250 mg/kg oral twice daily): 0.45
H3K27me3 in tumor, Dunnett's test Significant? ([2]; 250 mg/kg): Yes
H3K27me3 in tumor, Dunnett's test Summary ([2]; 500 mg/kg): * * *
H3K27me3 in tumor, Mean 2 (fold change to vehicle) ([2]; 500 mg/kg oral twice daily): 0.304
H3K27me3 in tumor, Mean Diff. vehicle vs. treated ([2]; 500 mg/kg oral twice daily): 0.696
H3K27me3 in tumor, Dunnett's test Significant? ([2]; 500 mg/kg): Yes
H3K27me3 levels in tumor tissues ([2]; oral twice daily for 7 days): dose dependent decrease
tumor volume [3]: dose-related tumor volume decrease
expression of HLA genes, Fas, and KLRD1 relative to vehicle [4]: increased
